The target in the assay is T1, ChemR23 (Homo sapiens, UniProt Q99788).
T1 sequence (Q99788 1-373): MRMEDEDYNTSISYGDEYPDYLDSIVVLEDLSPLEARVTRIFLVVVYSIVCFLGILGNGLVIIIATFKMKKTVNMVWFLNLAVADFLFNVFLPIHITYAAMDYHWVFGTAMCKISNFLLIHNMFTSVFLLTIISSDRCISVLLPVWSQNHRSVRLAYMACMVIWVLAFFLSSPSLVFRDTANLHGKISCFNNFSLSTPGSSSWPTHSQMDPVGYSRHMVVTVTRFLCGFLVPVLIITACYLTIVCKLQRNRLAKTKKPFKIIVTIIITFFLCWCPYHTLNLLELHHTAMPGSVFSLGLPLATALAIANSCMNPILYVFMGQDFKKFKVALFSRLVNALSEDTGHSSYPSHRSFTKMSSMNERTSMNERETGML
In words: [3H]-RvE1 saturation radioligand binding. The format is cell-based.

What is called Kd is the equilibrium constant for the complex coming apart. A lower Kd goes with higher affinity. As to `CC[C@@H](O)/C=C/C=C\C[C@@H](O)/C=C/C=C/C=C\[C@@H](O)CCCC(=O)O` [RvE1, 5S,12R,18R-trihydroxy-6Z,8E,10E,14Z,16E-EPA], the affinity, expressed as Kd, was 0.0113 ± 0.0054 µM.

Source of the values: article PMC2212834 (The Journal of Experimental Medicine, 2005).
